# Experimental data: US8569344B2, “N-piperidinyl acetamide derivatives as calcium channel blockers” (Zalicus Pharmaceuticals Ltd., priority 2008, dated 2013)
# pIC50: −log10 of the molar value.
# Target: T1, human α1H T-type channels (Homo sapiens, UniProt O95180)
# T1 construct: expressed in transfected cells; host or cells: HEK 293
# Experiment: T-type calcium channel block, whole cell patch clamp in HEK cells (α1H)
# Type: cell-based
# Details: HEK cells, patch clamp, mainly non-inactivated protocol; values above 10 μM shown as 10 μM; read-out: T-type Calcium Channel Block α1H IC50
# Procedure: (§1) T-type calcium channel blocking activity was assayed in human embryonic kidney cells, HEK 293, stably transfected with the T-type calcium channel subunits. Briefly, cells were cultured in Dulbecco's modified eagle medium (DMEM) supplemented with 10% fetal bovine serum, 200 U/ml penicillin and 0.2 mg/ml streptomycin at 37° C. with 5% CO2. At 85% confluency cells were split with 0.25% trypsin/1 mM EDTA and plated at 10% confluency on glass coverslips. […] Fresh DMEM was supplied and the cells transferred to 28° C./5% CO2. Cells were incubated for 1 to 2 days prior to whole cell recording.
# (§2) Standard patch-clamp techniques were employed to identify blockers of T-type currents. Briefly, previously described HEK cell lines stably expressing human α1G, α1H and α1I T-type channels were used for all the recordings (passage #: 4-20, 37° C., 5% CO2). Whole cell patch clamp experiments were performed using an Axopatch 200B amplifier (Axon Instruments, Burlingame, Calif.) linked to a personal computer equipped with pCLAMP software. Data were analyzed using Clampfit (Axon Instruments) and SigmaPlot 4.0 (Jandel Scientific). To obtain T-type currents, plastic dishes containing semi-confluent cells were positioned on the stage of a ZEISS AXIOVERT S100 microscope after replacing the culture medium with external solution (see below). Whole-cell patches were obtained using pipettes (borosilicate glass with filament, O.D.: 1.5 mm, I.D.: 0.86 mm, 10 cm length), fabricated on a SUTTER P-97 puller with resistance values of ˜5 MΩ (see below for internal solution).
# (§3) In the non-inactivating protocol, the holding potential is set at −110 mV and with a pre-pulse at −100 mV for 1 second prior to the test pulse at −40 mV for 50 ms.
# (§4) Test compounds were dissolved in external solution, 0.1-0.01% DMSO. After ˜10 min rest, they were applied by gravity close to the cell using a WPI microfil tubing. The “non-inactivated” pre-pulse was used to examine the resting block of a compound. The “inactivated” protocol was employed to study voltage-dependent block. […] Values are shown in μM and values above 10 μM are simply represented as 10 μM.
# T1 sequence (O95180 whole entry): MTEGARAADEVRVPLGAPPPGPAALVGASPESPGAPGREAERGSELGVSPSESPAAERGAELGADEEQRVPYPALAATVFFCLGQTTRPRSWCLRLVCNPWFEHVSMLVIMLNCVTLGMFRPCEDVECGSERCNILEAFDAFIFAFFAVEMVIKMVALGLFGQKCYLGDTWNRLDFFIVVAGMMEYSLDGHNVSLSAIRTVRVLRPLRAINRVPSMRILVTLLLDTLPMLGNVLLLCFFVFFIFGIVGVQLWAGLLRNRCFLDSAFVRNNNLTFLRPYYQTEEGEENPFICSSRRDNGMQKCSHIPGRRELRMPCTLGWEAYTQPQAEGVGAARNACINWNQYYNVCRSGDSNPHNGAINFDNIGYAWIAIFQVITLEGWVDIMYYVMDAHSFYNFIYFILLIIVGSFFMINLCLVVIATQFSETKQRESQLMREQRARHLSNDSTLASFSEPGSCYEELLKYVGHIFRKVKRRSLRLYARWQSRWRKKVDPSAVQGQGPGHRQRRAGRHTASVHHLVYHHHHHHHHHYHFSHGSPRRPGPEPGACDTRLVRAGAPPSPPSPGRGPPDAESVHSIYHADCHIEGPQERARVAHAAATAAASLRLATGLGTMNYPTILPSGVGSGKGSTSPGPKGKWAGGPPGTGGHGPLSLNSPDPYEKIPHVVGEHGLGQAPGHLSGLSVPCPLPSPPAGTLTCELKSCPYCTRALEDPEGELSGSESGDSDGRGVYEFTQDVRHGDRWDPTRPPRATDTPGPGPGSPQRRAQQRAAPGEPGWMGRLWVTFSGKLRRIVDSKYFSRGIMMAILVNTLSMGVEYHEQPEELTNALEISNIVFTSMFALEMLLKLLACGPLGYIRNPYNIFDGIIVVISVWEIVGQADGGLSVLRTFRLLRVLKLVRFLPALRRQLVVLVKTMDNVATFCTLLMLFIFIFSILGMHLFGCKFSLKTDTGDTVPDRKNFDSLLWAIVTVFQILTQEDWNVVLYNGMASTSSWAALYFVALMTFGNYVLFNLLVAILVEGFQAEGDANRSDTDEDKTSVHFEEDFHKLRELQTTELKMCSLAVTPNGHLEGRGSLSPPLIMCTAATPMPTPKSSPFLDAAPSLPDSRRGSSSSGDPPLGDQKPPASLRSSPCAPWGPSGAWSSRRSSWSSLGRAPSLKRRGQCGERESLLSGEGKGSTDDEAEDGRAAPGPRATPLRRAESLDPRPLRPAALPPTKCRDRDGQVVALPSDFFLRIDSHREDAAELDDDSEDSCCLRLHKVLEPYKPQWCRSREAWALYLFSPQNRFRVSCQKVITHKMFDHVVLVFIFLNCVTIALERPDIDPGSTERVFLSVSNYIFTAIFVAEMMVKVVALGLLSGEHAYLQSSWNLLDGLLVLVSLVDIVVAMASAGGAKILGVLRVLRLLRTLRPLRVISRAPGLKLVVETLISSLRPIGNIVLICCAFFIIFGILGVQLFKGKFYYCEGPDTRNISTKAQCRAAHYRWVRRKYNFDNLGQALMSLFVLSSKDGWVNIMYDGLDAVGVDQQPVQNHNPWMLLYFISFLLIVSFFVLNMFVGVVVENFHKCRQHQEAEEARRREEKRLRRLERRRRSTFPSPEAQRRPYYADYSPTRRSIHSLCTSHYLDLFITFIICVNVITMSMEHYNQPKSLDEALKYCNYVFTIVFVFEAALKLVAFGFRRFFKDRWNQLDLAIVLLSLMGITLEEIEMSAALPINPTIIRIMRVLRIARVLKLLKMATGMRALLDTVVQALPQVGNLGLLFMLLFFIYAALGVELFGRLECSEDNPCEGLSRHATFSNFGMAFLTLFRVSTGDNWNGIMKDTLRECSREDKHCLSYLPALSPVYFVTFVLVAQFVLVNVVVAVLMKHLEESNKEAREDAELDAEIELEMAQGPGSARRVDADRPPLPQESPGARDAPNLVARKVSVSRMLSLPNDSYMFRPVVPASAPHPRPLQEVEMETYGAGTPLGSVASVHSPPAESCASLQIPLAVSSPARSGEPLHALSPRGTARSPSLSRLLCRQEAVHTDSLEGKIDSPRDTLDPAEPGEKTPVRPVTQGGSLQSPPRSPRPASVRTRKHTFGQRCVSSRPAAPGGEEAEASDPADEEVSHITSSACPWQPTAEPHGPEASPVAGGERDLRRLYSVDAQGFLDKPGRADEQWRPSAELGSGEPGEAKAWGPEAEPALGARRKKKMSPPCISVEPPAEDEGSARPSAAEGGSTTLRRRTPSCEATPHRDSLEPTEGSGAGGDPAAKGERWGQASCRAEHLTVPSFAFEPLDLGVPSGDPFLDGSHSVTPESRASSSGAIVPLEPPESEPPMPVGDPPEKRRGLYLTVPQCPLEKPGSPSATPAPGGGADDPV
row,SMILES,pIC50
1,"CN(C(=O)CN1CCC(CNC(=O)c2cccc(Br)c2)CC1)C1(C)CCC1 [Compound 593, 3-bromo-N-((1-(2-(methyl(1-methylcyclobutyl)amino)-2-oxoethyl)piperidin-4-yl)methyl) benzamide]",6.59
2,"C[C@H]1CC[C@H](C(=O)NCCN2CCC(CNC(=O)c3cc(C(F)(F)F)cc(C(F)(F)F)c3)CC2)CC1 [Compound 64, N-((1-(2-((1r,4r)-4-methylcyclohexanecarboxamido)ethyl)piperidin-4-yl)methyl)-3,5-bis(trifluoromethyl)benzamide]",6.70
3,"CCS(=O)(=O)NC(C)(C)CN1CCC(CNC(=O)c2cc(F)cc(C(F)(F)F)c2)CC1 [Compound 7, N-((1-(2-(ethylsulfonamido)-2-methylpropyl)piperidin-4-yl)methyl)-3-fluoro-5-(trifluoromethyl)benzamide]",5.36
4,"CCC(=O)NCCN1CCC(CNC(=O)c2cc(C(F)(F)F)cc(C(F)(F)F)c2)CC1 [Compound 58, N-((1-(2-propionamidoethyl)piperidin-4-yl)methyl)-3,5-bis(trifluoromethyl) benzamide]",5.40
5,"CN(C(=O)CN1CCC(CNC(=O)c2cc(C(F)(F)F)cc(C(F)(F)F)c2)CC1)C1CCCCC1 [Compound 101, N-((1-(2-(cyclohexyl(methyl)amino)-2-oxoethyl)piperidin-4-yl)methyl)-3,5-bis(trifluoromethyl)benzamide]",6.85
6,"O=C(CN1CCC(CNC(=O)c2cc(C(F)(F)F)cc(C(F)(F)F)c2)CC1)N[C@H]1CC[C@H](O)CC1 [Compound 96, N-((1-(2-((1r,4r)-4-hydroxycyclo-hexylamino)-2-oxoethyl)piperidin-4-yl)methyl)-3,5-bis(trifluoromethyl) benzamide]",< 5.00
7,"CC(C)(O)C(=O)NCCN1CCC(CNC(=O)c2cc(C(F)(F)F)cc(C(F)(F)F)c2)CC1 [Compound 65, N-((1-(2-(2-hydroxy-2-methylpropanamido)ethyl)piperidin-4-yl)methyl)-3,5-bis(trifluoromethyl) benzamide]",5.20
8,"CCC1CCCCN1C(=O)CN1CCC(CNC(=O)c2cc(C(F)(F)F)cc(C(F)(F)F)c2)CC1 (centres unmarked) [Compound 100, N-((1-(2-(2-ethylpiperidin-1-yl)-2-oxoethyl)piperidin-4-yl)methyl)-3,5-bis(trifluoromethyl)benzamide]",7.00
9,"O=C(NCC1CCN(CC(=O)N2CCC(CO)CC2)CC1)c1cc(C(F)(F)F)cc(C(F)(F)F)c1 [Compound 106, N-((1-(2-(4-(hydroxymethyl)piperidin-1-yl)-2-oxoethyl)piperidin-4-yl)methyl)-3,5-bis(trifluoromethyl)benzamide]",5.25
10,"O=C(CN1CCC(CNC(=O)c2cc(C(F)(F)F)cc(C(F)(F)F)c2)CC1)NC1CCCC1 [Compound 92, N-((1-(2-(cyclopentylamino)-2-oxoethyl)piperidin-4-yl)methyl)-3,5-bis(trifluoromethyl)benzamide]",7.22
11,"O=C(NCC1CCN(CC(=O)N2CCCC2C(F)(F)F)CC1)c1cc(C(F)(F)F)cc(C(F)(F)F)c1 (centres unmarked) [Compound 107, N-((1-(2-oxo-2-(2-(trifluoromethyl)pyrrolidin-1-yl)ethyl)piperidin-4-yl)methyl)-3,5-bis(trifluoromethyl) benzamide]",6.80

# Now from value to compound:
row,pIC50,SMILES
1,< 5.00,"O=C(NCC1CCN(C(=O)CN2CC[C@@H](O)C2)CC1)c1cc(C(F)(F)F)cc(C(F)(F)F)c1 [Compound 263, (R)-N-((1-(2-(3-hydroxypyrrolidin-1-yl)acetyl)piperidin-4-yl)methyl)-3,5-bis(trifluoromethyl)benzamide]"
2,7.10,"CN(C(=O)CN1CCC(CNC(=O)c2cc(Cl)cc(Br)c2)CC1)C1(C)CCC1 [Compound 595, 3-bromo-5-chloro-N-((1-(2-(methyl(1-methylcyclobutyl)amino)-2-oxoethyl)piperidin-4-yl)methyl)benzamide]"
3,5.83,"CC(C)(C)OC(=O)N1CCC(O)(CN2CCC(CNC(=O)c3cc(F)cc(C(F)(F)F)c3)CC2)CC1 [Compound 599, tert-butyl 4-((4-((3-fluoro-5-(trifluoromethyl)benzamido)methyl)piperidin-1-yl)methyl)-4-hydroxy-piperidine-1-carboxylate]"
4,5.45,"O=C(NCC1CCN(C2CN(C(=O)c3cc(F)cc(Cl)c3)C2)CC1)c1cc(F)cc(Cl)c1 [Compound 605, 3-chloro-N-((1-(1-(3-chloro-5-fluorobenzoyl)azetidin-3-yl)piperidin-4-yl)methyl)-5-fluorobenzamide]"
5,< 5.00,"O=C(NCC1CCN(C(=O)CNC2CC2)CC1)c1cc(F)cc(C(F)(F)F)c1 [Compound 284, N-((1-(2-(cyclopropylamino)acetyl)piperidin-4-yl)methyl)-3-fluoro-5-(trifluoromethyl)benzamide]"
6,5.52,"O=C(NCC1CCN(C2CN(C(=O)C3(C(F)(F)F)CC3)C2)CC1)c1cc(F)cc(Cl)c1 [Compound 609, 3-chloro-5-fluoro-N-((1-(1-(1-(trifluoromethyl)cyclopropanecarbonyl)azetidin-3-yl)piperidin-4-yl)methyl) benzamide]"
7,6.85,"C[C@@H]1CCCCN1C(=O)CN1CCC(CNC(=O)c2cc(C(F)(F)F)cc(C(F)(F)F)c2)CC1 [Compound 104, (R)-N-((1-(2-(2-methylpiperidin-1-yl)-2-oxoethyl)piperidin-4-yl)methyl)-3,5-bis(trifluoromethyl)benzamide]"
8,6.77,"COc1cc(Cl)cc(C(=O)NCC2CCN(CC(=O)N(C)C3(C)CCC3)CC2)c1 [Compound 591, 3-chloro-5-methoxy-N-((1-(2-(methyl(1-methylcyclobutyl)amino)-2-oxoethyl)piperidin-4-yl)methyl)benzamide]"
9,6.09,"O=C(NCC1CCN(C2CN(C(=O)c3cccc(OC(F)(F)F)c3)C2)CC1)c1cc(F)cc(Cl)c1 [Compound 603, 3-chloro-5-fluoro-N-((1-(1-(3-(trifluoromethoxy)benzoyl)azetidin-3-yl)piperidin-4-yl)methyl)benzamide]"
10,5.69,"COc1cc(Cl)cc(C(=O)N2CC(N3CCC(CNC(=O)c4cc(F)cc(Cl)c4)CC3)C2)c1 [Compound 600, 3-chloro-N-((1-(1-(3-chloro-5-methoxybenzoyl)azetidin-3-yl)piperidin-4-yl)methyl)-5-fluoro-benzamide]"
11,< 5.00,"CC(C)(C)NC(=O)N1CC(N2CCC(CNC(=O)c3cc(F)cc(Cl)c3)CC2)C1 [Compound 612, N-tert-butyl-3-(4-((3-chloro-5-fluorobenzamido)methyl)piperidin-1-yl)azetidin-1-carboxamide]"

# Target: T2, human α1G T-type channels (Homo sapiens, UniProt O43497)
# T2 construct: expressed in transfected cells; host or cells: HEK 293
# Experiment: T-type calcium channel block, whole cell patch clamp in HEK cells (α1G)
# Type: cell-based
# Details: HEK cells, patch clamp, mainly non-inactivated protocol; values above 10 μM shown as 10 μM, below 0.30 μM shown as 0.30 μM; read-out: T-type Calcium Channel Block α1G IC50
# Procedure: as §1, §2, §3, §4
# T2 sequence (O43497 whole entry): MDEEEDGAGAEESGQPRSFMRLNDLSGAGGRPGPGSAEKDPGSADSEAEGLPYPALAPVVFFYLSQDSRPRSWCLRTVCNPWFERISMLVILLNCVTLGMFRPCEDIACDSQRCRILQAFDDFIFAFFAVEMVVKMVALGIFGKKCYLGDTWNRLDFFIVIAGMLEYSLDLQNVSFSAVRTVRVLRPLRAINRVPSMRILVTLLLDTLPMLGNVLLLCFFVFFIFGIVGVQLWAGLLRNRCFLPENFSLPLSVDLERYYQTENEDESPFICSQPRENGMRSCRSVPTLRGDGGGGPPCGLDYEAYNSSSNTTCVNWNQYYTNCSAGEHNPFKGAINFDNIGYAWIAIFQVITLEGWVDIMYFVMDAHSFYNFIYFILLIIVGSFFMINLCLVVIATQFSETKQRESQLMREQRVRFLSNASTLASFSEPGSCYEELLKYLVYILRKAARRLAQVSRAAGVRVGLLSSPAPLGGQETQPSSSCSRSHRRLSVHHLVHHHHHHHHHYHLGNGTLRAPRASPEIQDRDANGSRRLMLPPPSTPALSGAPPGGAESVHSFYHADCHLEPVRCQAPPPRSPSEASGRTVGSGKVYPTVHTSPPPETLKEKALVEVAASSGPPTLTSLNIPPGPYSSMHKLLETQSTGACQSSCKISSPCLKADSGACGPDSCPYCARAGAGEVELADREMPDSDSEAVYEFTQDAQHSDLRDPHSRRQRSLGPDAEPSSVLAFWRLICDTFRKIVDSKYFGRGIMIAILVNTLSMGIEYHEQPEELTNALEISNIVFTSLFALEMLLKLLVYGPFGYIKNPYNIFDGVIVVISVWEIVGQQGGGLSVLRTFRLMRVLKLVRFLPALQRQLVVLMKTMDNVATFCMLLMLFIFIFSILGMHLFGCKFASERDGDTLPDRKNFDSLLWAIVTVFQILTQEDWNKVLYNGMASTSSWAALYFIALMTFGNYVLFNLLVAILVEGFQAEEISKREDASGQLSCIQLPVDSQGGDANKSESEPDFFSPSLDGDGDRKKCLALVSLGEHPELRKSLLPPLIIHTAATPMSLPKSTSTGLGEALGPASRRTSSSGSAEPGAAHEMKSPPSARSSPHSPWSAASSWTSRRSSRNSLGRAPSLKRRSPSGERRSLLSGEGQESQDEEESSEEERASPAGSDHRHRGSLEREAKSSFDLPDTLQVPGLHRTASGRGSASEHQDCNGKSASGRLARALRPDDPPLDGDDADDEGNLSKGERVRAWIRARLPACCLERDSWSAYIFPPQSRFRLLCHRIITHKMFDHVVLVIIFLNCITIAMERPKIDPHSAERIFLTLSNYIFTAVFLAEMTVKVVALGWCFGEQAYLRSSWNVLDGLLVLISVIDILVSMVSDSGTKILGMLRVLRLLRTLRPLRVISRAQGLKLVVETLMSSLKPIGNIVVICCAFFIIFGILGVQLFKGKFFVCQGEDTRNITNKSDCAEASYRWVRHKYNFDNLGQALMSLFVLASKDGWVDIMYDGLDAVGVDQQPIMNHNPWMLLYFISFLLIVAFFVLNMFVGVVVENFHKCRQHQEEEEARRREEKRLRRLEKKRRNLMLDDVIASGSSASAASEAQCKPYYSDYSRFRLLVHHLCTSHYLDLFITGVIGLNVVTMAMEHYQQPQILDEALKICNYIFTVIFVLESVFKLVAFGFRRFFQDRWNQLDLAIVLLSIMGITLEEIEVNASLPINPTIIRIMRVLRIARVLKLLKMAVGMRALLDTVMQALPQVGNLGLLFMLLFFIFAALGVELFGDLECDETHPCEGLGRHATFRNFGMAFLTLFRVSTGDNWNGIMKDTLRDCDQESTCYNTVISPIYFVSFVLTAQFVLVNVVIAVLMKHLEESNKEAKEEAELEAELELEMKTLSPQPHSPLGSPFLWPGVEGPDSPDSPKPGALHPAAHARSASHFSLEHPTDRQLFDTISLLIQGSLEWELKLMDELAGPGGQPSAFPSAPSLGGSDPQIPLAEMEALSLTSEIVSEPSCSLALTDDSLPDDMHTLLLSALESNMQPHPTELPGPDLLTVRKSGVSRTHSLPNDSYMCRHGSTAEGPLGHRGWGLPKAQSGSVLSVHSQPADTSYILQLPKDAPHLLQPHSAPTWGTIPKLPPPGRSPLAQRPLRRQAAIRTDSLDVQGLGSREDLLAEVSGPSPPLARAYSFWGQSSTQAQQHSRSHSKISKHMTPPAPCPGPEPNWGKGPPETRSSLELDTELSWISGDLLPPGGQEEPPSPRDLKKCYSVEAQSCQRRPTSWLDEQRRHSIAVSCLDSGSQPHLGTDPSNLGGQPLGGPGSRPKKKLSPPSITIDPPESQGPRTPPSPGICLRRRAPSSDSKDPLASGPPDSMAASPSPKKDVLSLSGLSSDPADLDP
row,SMILES,pIC50
1,"CC(C)(C)C(CN1CCC(CC(=O)NCc2cc(Cl)cc(Cl)c2)CC1)NS(C)(=O)=O (centres unmarked) [Compound 207, N-(3,5-dichhlorobenzyl)-2-(1-(3,3-dimethyl-2-(methylsulfonamido)butyl)piperidin-4-yl)acetamide]",< 5.00
2,"COc1ccc(C(=O)NCC2CCN(CCNS(=O)(=O)C(F)(F)F)CC2)cc1OC [Compound 332, 3,4-dimethoxy-N-((1-(2-(trifluoromethylsulfonamido)ethyl)piperidin-4-yl)methyl)benzamide]",< 5.00
3,"CC1(NC(=O)CN2CCC(CNC(=O)c3cc(C(F)(F)F)cc(C(F)(F)F)c3)CC2)CCCCC1 [Compound 431, N-((1-(2-(1-methylcyclohexylamino)-2-oxoethyl)piperidin-4-yl)methyl)-3,5-bis(trifluoromethyl)benzamide]",> 6.52
4,"CC(C)(C)C(CN1CCC(CC(=O)NCc2cc(Cl)cc(Cl)c2)CC1)NS(=O)(=O)C1CC1 (centres unmarked) [Compound 209, 2-(1-(2-(cyclopropanesulfonamido)-3,3-dimethylbutyl)piperidin-4-yl)-N-(3,5-dichlorobenzyl)acetamide]",5.07

# Results, then the compound that gave them:
row,pIC50,SMILES
1,6.27,"O=C(NCC1CCN(CCNC(=O)C2CCCC2)CC1)c1cc(F)cc(C(F)(F)F)c1 [Compound 402, N-((1-(2-(cyclopentanecarboxamido)ethyl)piperidin-4-yl)methyl)-3-fluoro-5-(trifluoromethyl)benzamide]"
2,5.09,"COC(=O)NC(CN1CCC(CC(=O)NCc2cc(Cl)cc(Cl)c2)CC1)C(C)(C)C (centres unmarked) [Compound 223, methyl 1-(4-(2-(3,5-dichlorobenzyl-amino)-2-oxoethyl)piperidin-1-yl)-3,3-dimethylbutan-2-ylcarbamate]"
3,6.36,"CC(C)(C)CC(=O)N1CCC[C@H]1CN1CCC(CNC(=O)c2cc(F)cc(C(F)(F)F)c2)CC1 [Compound 424, (S)-N-((1-((1-(3,3-dimethylbutanol)pyrrolidin-2-yl)methyl)piperidin-4-yl)methyl)-3-fluoro-5-(trifluoromethyl)benzamide]"
